Reference: ChEMBL document CHEMBL1126578, “Synthesis and optical resolution of (R)- and (S)-trans-7-Hydroxy-2-[N-propyl-N-(3'-iodo-2'-propenyl)amino]tetralin: a new D3 dopamine receptor ligand” (J Med Chem, 1993)

Target: D(3) dopamine receptor (Rattus norvegicus) (UniProt P19020)
Experiment: Saturable binding was tested dopamine receptor D3 in rat striatal membrane homogenate
Type: cell membranes
Conditions: Striatum

Chain of D(3) dopamine receptor (Rattus norvegicus) (P19020 whole entry): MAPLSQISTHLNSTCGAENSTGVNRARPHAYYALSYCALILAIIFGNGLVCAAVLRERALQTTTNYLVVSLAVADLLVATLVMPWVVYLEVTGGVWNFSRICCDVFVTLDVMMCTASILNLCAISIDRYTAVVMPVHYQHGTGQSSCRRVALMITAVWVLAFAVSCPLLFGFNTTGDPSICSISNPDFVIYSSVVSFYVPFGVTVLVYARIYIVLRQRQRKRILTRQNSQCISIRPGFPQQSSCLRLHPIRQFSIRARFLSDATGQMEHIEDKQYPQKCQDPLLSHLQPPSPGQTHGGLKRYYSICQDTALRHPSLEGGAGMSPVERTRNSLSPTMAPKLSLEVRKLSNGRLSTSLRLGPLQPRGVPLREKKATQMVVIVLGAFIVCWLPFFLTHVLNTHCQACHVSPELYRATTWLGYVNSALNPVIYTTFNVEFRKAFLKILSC

## CCCN(C/C=C/I)C1CCc2ccc(O)cc2C1 (stereo unspecified)
  Bmax (fM (mg of protein)-1): 240
